In US7566781B2, “Imidazopyridine compound” (Banyu Pharmaceutical Co., Ltd., priority 2004, dated 2009):

What follows are molecules tested against T1, human MCH-1R (Homo sapiens, UniProt Q99705) (assay: MCH binding inhibition test). Settings: membranes of MCH-1R expressing CHO-K1 cells, 50 pM [125I]MCH, 25° C., 1 hour, pH 7.4; read-out: IC50 (50% inhibition concentration of test compound to the specific [125I]MCH binding).
T1 construct: expressed in transfected cells; host or cells: CHO-K1 (American Type Culture Collection), membrane samples
T1 sequence (Q99705 whole entry): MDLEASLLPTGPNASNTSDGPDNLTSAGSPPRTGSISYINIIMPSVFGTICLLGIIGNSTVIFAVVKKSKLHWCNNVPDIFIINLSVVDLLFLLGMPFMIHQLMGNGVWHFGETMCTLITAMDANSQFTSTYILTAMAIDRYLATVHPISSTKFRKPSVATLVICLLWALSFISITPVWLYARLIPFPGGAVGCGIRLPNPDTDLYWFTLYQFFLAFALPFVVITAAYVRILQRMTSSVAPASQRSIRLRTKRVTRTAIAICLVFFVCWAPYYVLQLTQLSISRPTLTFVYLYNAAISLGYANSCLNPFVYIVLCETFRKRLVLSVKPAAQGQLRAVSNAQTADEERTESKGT
Experimental: A human MCH-1R encoding cDNA sequence [FEBS Letters, Vol. 398, 253 (1996); Biochimica et Biophisica Acta, Vol. 1401, 216 (1998)] was cloned to plasmid vector pEF/myc/cyto (Invitrogen Corporation). The obtained expression vector was transfected to a host cell CHO-K1 (American Type Culture Collection) using Lipofectamine Plus Reagent (Life Technology Inc.) to provide MCH-1R expression cells.
Membrane samples prepared from the MCH-1R expression cells were incubated with each test compound and 50 pM of [^125I]MCH (NEN Co.), in an assay buffer (50 mM Tris buffer comprising 10 mM magnesium chloride, 2 mM ethylenediamine tetraacetate, 0.01% bacitracin and 0.2% bovine serum albumin; pH 7.4) at 25° C. for an hour, followed by filtration through Glass Filter GF/C (Wattman Co.). After washing the glass filter with 50 mM Tris buffer (pH 7.4) comprising 10 mM magnesium chloride, 2 mM ethylenediamine tetraacetate and 0.04% Tween-20, the radioactive activity on the glass filter was measured. The non-specific binding was measured in the presence of 1 μM human MCH and 50% inhibition concentration (IC50 value) of each test compound to the specific [^125I]MCH binding was determined.
For Cc1c(CCCN2CCCC2)nc2ccc(NC(=O)c3ccc(OCc4ccccc4)cc3)cn12 [Example 17], the IC50 was 0.49 nM.
For CCc1nc2ccc(NC(=O)c3ccc(OCc4ccccn4)c(F)c3)cn2c1C [Example 9, N-(2-ethyl-3-methylimidazo[1,2-a]pyridin-6-yl)-3-fluoro-4-(pyridin-2-ylmethoxy)benzamide], the IC50 was 3.4 nM.
Work on CCc1nc2ccc(NC(=O)c3ccc(C(F)Cc4ccccn4)cc3)cn2c1C (stereo not drawn) [Example 58, N-(2-ethyl-3-methylimidazo[1,2-a]pyridin-6-yl)-4-(1-fluoro-2-pyridin-2-ylethyl)benzamide] yielded an IC50 of 3.8 nM.
Molecule Cc1c(CCCN2CCCC2)nc2ccc(NC(=O)c3ccc(/C=C/c4ccccn4)cc3)cn12 [Example 48, N-[3-methyl-2-(3-pyrrolidin-1-ylpropyl)imidazo[1,2-a]pyridin-6-yl]-4-[(E)-2-pyridin-2-ylvinyl]benzamide] has an IC50 of 0.47 nM.
Cc1c(C2CC2)nc2ccc(NC(=O)c3ccc(NC(=O)c4ccccn4)cc3)cn12 [Example 61, Pyridine-2-carboxylic acid[4-(2-cyclopropyl-3-methylimidazo[1,2-a]pyridin-6-ylcarbamoyl)phenyl]amide] was tested, and the IC50 was 4.7 nM.
Molecule CCc1nc2ccc(NC(=O)c3ccc(Oc4cc(Cl)ccn4)cc3)cn2c1C [Example 67, 4-(4-Chloropyridin-2-yloxy)-N-(2-ethyl-3-methylimidazo[1,2-a]pyridin-6-yl)benzamide] has an IC50 of 4.3 nM.
For Cc1c(C2CCOC2)nc2ccc(NC(=O)c3ccc(SCc4ccccn4)cc3)cn12 (stereo not drawn) [Example 59, N-[3-methyl-2-(tetrahydrofuran-3-yl)imidazo[1,2-a]pyridin-6-yl]-4-(pyridin-2-ylmethylsulfanyl)benzamide], the IC50 was 3.8 nM.
For Cc1c(C2CC2)nc2ccc(NC(=O)c3ccc(COc4ccccn4)cc3)cn12 [Example 25], the IC50 was 8.4 nM.
With Cc1c(C2CCOC2)nc2ccc(NC(=O)c3ccc(/C(F)=C/c4ccccn4)cc3)cn12 (stereo not drawn) [Example 42] the IC50 was 4.8 nM.
CCc1nc2ccc(NC(=O)c3ccc(OCc4ccc(F)cn4)c(F)c3)cn2c1C [Example 11, N-(2-ethyl-3-methylimidazo[1,2-a]pyridin-6-yl)-3-fluoro-4-[(5-fluoropyridin-2-yl)methoxy]benzamide] gave an IC50 of 2.2 nM.
Cc1c(C(C)C)nc2ccc(NC(=O)c3ccc(CCc4ccccn4)cc3)cn12 [Example 49, N-(2-isopropyl-3-methylimidazo[1,2-a]pyridin-6-yl)-4-(2-pyridin-2-ylethyl)benzamide] showed an IC50 of 6.2 nM.
Work on CCc1nc2ccc(NC(=O)c3ccc(/C=C/c4ccccc4)cc3)cn2c1C [Example 28, N-(2-ethyl-3-methylimidazo[1,2-a]pyridin-6-yl)-4-((E)-2-phenylvinyl)benzamide] yielded an IC50 of 1.3 nM.
